Read-outs that look alike come from different tables or passages of the source.
Columns and labels:
Format in all cases: in vivo
blood-sugar = assay: Blood-sugar lowering activity in starved female rats after oral administration; details: for change in vivo at 1 mg/kg / change in vivo at 5 mg/kg / change in vivo at 10 mg/kg: Rattus norvegicus, po, read-out: Blood-sugar lowering activity, percent as compared with the controls; for change in vivo at 10 mg/kg: 10 mg/kg orally (footnote *)
Protocol: The blood-sugar lowering activity of the test compounds was determined in home-bred female rats with weights of from 180 to 220 grams. Twenty-four hours before starting the test the animals were starved. Before the test the compounds were suspended in 1.5% methyl cellulose and administered to the animals by means of an esophageal tube.
Blood was taken from the retroorbital plexus vein before administration of the test compounds as well as each of 1, 2, 3, and 4 hours after administration. Fifty microliters of each sample were deproteinized with 0.5 ml of 0.33N perchloric acid and centrifuged. The glucose content was determined in the supernatant according to the Hexokinase method by means of an analysis photometer. The statistical evalulation was performed with the t-test according to Student with p=0.05.

[1] = Acute toxicity in female and male mice after oral administration of a single dose; details: mouse, in vivo, observation time 14 days, read-out: Peroral Toxicity
Protocol: (§1) The acute toxicity was determined in home-bred female and male mice having body weights of from 20 to 26 gm after oral administration (suspension in a 1% methyl cellulose solution) of a single dose. Observation time: 14 days.

mice = assay: as above; details: observation time 14 days
Protocol: as §1

[2] = 1 mg/kg orally, 4 hours, n.s. = not statistically significant
[3] = 5 mg/kg orally, 4 hours, n.s. = not statistically significant
[4] = 1 mg/kg orally, 1 hour, n.s. = not statistically significant
[5] = 1 mg/kg orally, 2 hours, n.s. = not statistically significant
[6] = 1 mg/kg orally, 3 hours, n.s. = not statistically significant
[7] = 5 mg/kg orally, 1 hour, n.s. = not statistically significant
[8] = 5 mg/kg orally, 2 hours, n.s. = not statistically significant
[9] = 5 mg/kg orally, 3 hours, n.s. = not statistically significant

Structure (SMILES) | Blood-sugar lowering activity, percent as compared with the controls (blood-sugar; [2]) | Blood-sugar lowering activity, percent as compared with the controls (blood-sugar; [3]) | change in vivo at 1 mg/kg (blood-sugar; [4]) [%] | change in vivo at 1 mg/kg (blood-sugar; [5]) [%] | change in vivo at 1 mg/kg (blood-sugar; [6]) [%] | change in vivo at 5 mg/kg (blood-sugar; [7]) [%] | change in vivo at 5 mg/kg (blood-sugar; [8]) [%] | change in vivo at 5 mg/kg (blood-sugar; [9]) [%] | LD50 at 336 h [1] [mg/kg] | animals died (mice) | change in vivo at 1 mg/kg (blood-sugar; [2]) [%] | change in vivo at 5 mg/kg (blood-sugar; [3]) [%] | Blood-sugar lowering activity, percent as compared with the controls (blood-sugar; [5]) | Blood-sugar lowering activity, percent as compared with the controls (blood-sugar; [6]) | change in vivo at 10 mg/kg (blood-sugar; 1 hour) [%] | change in vivo at 10 mg/kg (blood-sugar; 2 hours) [%] | change in vivo at 10 mg/kg (blood-sugar; 3 hours, n.s. = not statistically significant) [%] | change in vivo at 10 mg/kg (blood-sugar; 4 hours, n.s. = not statistically significant) [%]
Cc1ccc(C(NC(=O)Cc2ccc(C(=O)O)cc2)c2ccccc2N2CCCCC2)cc1 (stereo not drawn) [AA, 4-[(α-(4-Methyl-phenyl)-2-piperidino-benzyl)-aminocarbonylmethyl]-benzoic acid] | n.s. | n.s. | -15 | -15 | -13 | -30 | -33 | -14 | > 1000 | 0 out of 10 |  |  |  |  |  |  |  | 
O=C(Cc1ccc(C(=O)O)cc1)NC(c1ccccc1F)c1ccccc1N1CCCCC1 (stereo not drawn) [AD, 4-[(α-(2-Fluoro-phenyl)-2-piperidino-benzyl)-aminocarbonylmethyl]-benzoic acid] |  |  | -16 | -20 | -17 | -28 | -32 | -27 | > 1000 | 0 out of 10 | -14 | -28 |  |  |  |  |  | 
O=C(Cc1ccc(C(=O)O)cc1)NC(c1ccccn1)c1ccccc1N1CCCCC1 (stereo not drawn) [AG, 4-[(2-Piperidino-α-(2-pyridyl)-benzyl)-aminocarbonylmethyl]-benzoic acid] | n.s. |  | -18 |  |  |  |  |  | > 1000 | 0 out of 10 |  |  | n.s. | n.s. | -49 | -50 | -36 | -31
O=C(Cc1ccc(C(=O)O)cc1)NC(c1ccc(Cl)cc1)c1ccccc1N1CCCCC1 (stereo not drawn) [AE, 4-[(α-(4-Chloro-phenyl)-2-piperidino-benzyl)-aminocarbonylmethyl]-benzoic acid] | n.s. |  | -21 | -20 | -22 | -30 | -28 | -39 | > 1000 | 0 out of 10 |  | -36 |  |  |  |  |  | 
CCCC(NC(=O)Cc1ccc(C(=O)O)cc1)c1ccccc1N1CCCCC1 (racemic) [J, (±)-4-[(1-(2-Piperidino-phenyl)-1-butyl)-aminocarbonylmethyl]-benzoic acid] |  |  | -38 | -32 | -34 | -44 | -37 | -42 | > 2000 | 0 out of 10 | -29 | -42 |  |  |  |  |  | 
O=C(Cc1ccc(C(=O)O)cc1)NC(c1ccccc1)c1ccccc1N1CCCCC1 (racemic) [AV, (±)-4-[(2-Piperidino-benzhydryl)-aminocarbonylmethyl]-benzoic acid] |  |  | -41 | -38 | -26 | -44 | -38 | -41 | > 2000 | 0 out of 10 | -24 | -37 |  |  |  |  |  | 
O=C(Cc1ccc(C(=O)O)cc1)NC(c1ccc(F)cc1)c1ccccc1N1CCCCC1 (stereo not drawn) [AC, 4-[(α-(4-Fluoro-phenyl)-2-piperidino-benzyl)-aminocarbonylmethyl]-benzoic acid] |  |  |  |  |  | -36 | -37 | -36 | > 1000 | 0 out of 10 |  | -33 |  |  |  |  |  | 
CC(C)=C(NC(=O)Cc1ccc(C(=O)O)cc1)c1ccccc1N1CCCCC1 [D, 4-[(2-Methyl-1-(2-piperidino-phenyl)-1-propen-1-yl)-aminocarbonylmethyl]-benzoic acid] |  |  | -36 | -32 | -27 |  |  |  | > 500 | 0 out of 6 | -25 |  |  |  |  |  |  | 
CC(NC(=O)Cc1ccc(C(=O)O)cc1)c1ccccc1N1CCCCC1 (racemic) [AT, (±)-4-[(1-(2-Piperidino-phenyl)-1-ethyl)-aminocarbonylmethyl]-benzoicacid] |  |  | -34 | -26 |  | -45 | -45 | -36 | > 2000 | 1 out of 10 | -11 | -32 |  | n.s. |  |  |  | 
CC/C=C(\NC(=O)Cc1ccc(C(=O)O)cc1)c1ccccc1N1CCCCC1 [A, (Z)-4-[(1-(2-Piperidino-phenyl)-1-buten-1yl)-aminocarbonylmethyl]-benzoicacid] |  |  | -43 | -40 | -33 |  |  |  | > 1000 | 0 out of 6 | -35 |  |  |  |  |  |  | 
CC/C=C(/NC(=O)Cc1ccc(C(=O)O)cc1)c1ccccc1N1CCCCC1 [C, (E)-4-[(1-(2-Piperidino-phenyl)-1-buten-1-yl)-aminocarbonylmethyl]-benzoic acid] |  |  | -43 | -43 | -37 |  |  |  | > 2000 | 0 out of 6 | -38 |  |  |  |  |  |  | 

From US4735959A, “Carboxylic acid amides and pharmaceutical compositions containing them” (Dr. Karl Thomae GmbH, priority 1981, dated 1988)
